Patent US11225503B2, “Crystobactamides” (HELMHOLTZ-ZENTRUM FÜR INFEKTIONSFORSCHUNG GMBH, priority 2013, dated 2022)
Values after ≈ are worked out from the molar mass of the structure shown. Like-named read-outs stand apart in the source and are kept apart here.

Columns and labels:
[1] = test system: E. coli strain WT-4 M2.1 (parC mutation); assay: Susceptibility of mutant E. coli strains, MIC; type: cell-based; conditions: Escherichia coli
Source text: Cystobactamides were screened using a panel of E. coli strains with typical mutations in gyrA and parC genes (Table 11).
(§1) Bacterial wildtype strains used in susceptibility assays were either part of our strain collection or purchased from the German Collection of Microorganisms and Cell Cultures (DSMZ) or from the American Type Culture Collection (ATCC). E. coli strain WT^[6] and E. coli mutants were kindly provided by Prof. Dr. P. Heisig, Pharmaceutical Biology and Microbiology, University of Hamburg.
(§2) MIC values were determined in microdilution assays. Overnight cultures were diluted in the appropriate growth medium to achieve an inoculum of 10^4-10^6 cfu/mL. Yeasts were grown in Myc medium (1% phytone peptone, 1% glucose, 50 mM HEPES, pH 7.0), S. pneumonia and E. faecalis in tryptic soy broth (TSB: 1.7% peptone casein, 0.3% peptone soymeal, 0.25% glucose, 0.5% NaCl, 0.25% K2HPO4; pH 7.3); M. smegmatis in Middlebrook 7H9 medium supplemented with 10% Middlebrook ADC enrichment and 2 ml/l glycerol). All other listed bacteria were grown in Müller-Hinton broth (0.2% beef infusion solids, 1.75% casein hydrolysate, 0.15% starch, pH 7.4). Cystobactamides and reference drugs were added directly to the cultures in sterile 96-well plates as duplicates and serial dilutions were prepared. Microorganisms were grown on a microplate shaker (750 rpm, 30-37° C., 18-48 h), except S. pneumonia, which was grown at non-shaking conditions (37° C., 5% CO2, 18 h). Growth inhibition was assessed by visual inspection and the MIC was defined as the lowest concentration of compound that inhibited visible growth.

[2] = test system: E. coli strain WT III (marR Δ74 bp); assay: Susceptibility of mutant E. coli strains, MIC; type: cell-based; conditions: Escherichia coli
Procedure: as §1, §2

[3] = molecular target: T1, H. sapiens topoisomerase I (Homo sapiens, UniProt P11387); assay: Topoisomerase I relaxation (inhibition) assay; type: biochemical
T1 construct: purchased Inspiralis (Norwich, UK)
T1 sequence (P11387 1-765): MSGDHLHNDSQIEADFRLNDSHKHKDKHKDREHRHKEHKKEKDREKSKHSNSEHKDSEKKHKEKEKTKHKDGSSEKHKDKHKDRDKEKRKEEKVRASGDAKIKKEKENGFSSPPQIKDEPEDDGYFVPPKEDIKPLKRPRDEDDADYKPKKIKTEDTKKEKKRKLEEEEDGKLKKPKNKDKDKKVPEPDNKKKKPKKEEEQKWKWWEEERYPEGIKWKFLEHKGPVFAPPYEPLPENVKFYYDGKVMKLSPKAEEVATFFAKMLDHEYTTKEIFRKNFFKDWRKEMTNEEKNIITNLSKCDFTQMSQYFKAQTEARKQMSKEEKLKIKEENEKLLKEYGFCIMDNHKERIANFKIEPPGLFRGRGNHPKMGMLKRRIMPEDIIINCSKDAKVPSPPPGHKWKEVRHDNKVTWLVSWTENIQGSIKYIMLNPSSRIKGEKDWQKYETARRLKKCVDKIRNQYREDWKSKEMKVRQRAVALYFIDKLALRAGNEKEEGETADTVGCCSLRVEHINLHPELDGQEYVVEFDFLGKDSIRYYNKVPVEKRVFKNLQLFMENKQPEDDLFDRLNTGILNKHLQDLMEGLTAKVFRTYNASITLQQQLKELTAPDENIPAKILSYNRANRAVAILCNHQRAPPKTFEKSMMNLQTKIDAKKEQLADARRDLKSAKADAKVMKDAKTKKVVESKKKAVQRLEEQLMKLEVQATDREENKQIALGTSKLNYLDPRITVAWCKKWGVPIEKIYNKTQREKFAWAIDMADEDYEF
Procedure: Aside the ATP-dependent type IIa topoisomerases like E. coli gyrase, topoIV and human topoII, the activity of cystobactamides on the ATP-independent human topoisomerase I was tested as well.
The topo I reactions were titrated with varying concentrations of A-D and resolved by agarose gel electrophoresis. For IC50 determination the band intensity of the supercoiled plasmid was determined using Adobe Photoshop, plotted vs. [cystobactamide] and fitted using Hill's equation.
(§3) Following natural product concentrations were used in the assay:
Cystobactamide C: 300 μM; 30 μM; 3 μM
Control reactions were: no enzyme and a standard reaction in presence of 5% (v/v) DMSO. All reaction samples were equilibrated for 10 minutes at room-temperature in the absence of DNA. Then the relaxed plasmid was added to start the reaction
(§4) To determine IC50 values, the formation of supercoiled (gyrase) or relaxed (topoisomerase I, II IV) plasmid was quantified using Adobe Photoshop (Histogram mode). Plotting of these values versus the compound concentration yielded sigmoidal shaped curves, which were fitted using Hill's equation (Origin Pro 8.5). All determined IC50 values are the averages of three independent experiments.

E. coli topoisomerase IV = molecular target: T2, E. coli topoisomerase IV (Escherichia coli, UniProt P0AFI2+P20083); assay: Topoisomerase IV relaxation (inhibition) assay; type: biochemical
T2 construct: purchased Inspiralis (Norwich, UK)
Procedure: Prokaryotic DNA gyrase and topoisomerase IV share a high degree of homology and gyrase inhibitors typically show a topoisomerase IV inhibitory activity.^8 To test the influence of the cystobactamides on topoisomerase IV a commercial E. coli topoisomerase IV kit (Inspiralis) was used.
The topo IV reactions were titrated with varying concentrations of A-D and resolved by agarose gel electrophoresis. For IC50 determination the band intensity of the supercoiled plasmid was determined using Adobe Photoshop, plotted vs. [cystobactamide] and fitted using Hill's equation.
as §3
(§5) Control reactions were: no enzyme and a standard reaction in presence of 5% (v/v) DMSO. All reaction samples were equilibrated for 10 minutes at room-temperature in the absence of DNA. Then the relaxed plasmid was added to start the reaction.
as §4

[4] = molecular target: T3, H. sapiens topoisomerase II (Homo sapiens, UniProt P11388); assay: Topoisomerase II relaxation (inhibition) assay; type: biochemical; conditions: for IC50: H. sapiens Topoisomerase II inhibition assay, read-out: IC50
T3 construct: purchased Inspiralis (Norwich, UK)
Procedure: The topo II reactions were titrated with varying concentrations of A-D and resolved by agarose gel electrophoresis. For IC50 determination the band intensity of the supercoiled plasmid was determined using Adobe Photoshop, plotted vs. [cystobactamide] and fitted using Hill's equation.
as §3, §5, §4

[5] = test system: several microorganisms and cell lines; assay: Biological evaluation, summary statements over the MIC and cytotoxicity tests; type: cell-based
Procedure: Cells were seeded at 6×10^3 cells per well of 96-well plates (Corning CellBind®) in complete medium (180 μl) and directly treated with cystobactamides dissolved in methanol in a serial dilution. Compound were tested in duplicate for 5 d, as well as the internal solvent control. After 5 d incubation, 5 mg/ml MTT in PBS (20 μL) was added per well and it was further incubated for 2 h at 37° C.[7] The medium was then discarded and cells were washed with PBS (100 μl) before adding 2-propanol/10N HCl (250:1, v/v; 100 μl) in order to dissolve formazan granules. The absorbance at 570 nm was measured using a microplate reader (EL808, Bio-Tek Instruments Inc.).
as §2

T2 sequence (P20083 whole entry): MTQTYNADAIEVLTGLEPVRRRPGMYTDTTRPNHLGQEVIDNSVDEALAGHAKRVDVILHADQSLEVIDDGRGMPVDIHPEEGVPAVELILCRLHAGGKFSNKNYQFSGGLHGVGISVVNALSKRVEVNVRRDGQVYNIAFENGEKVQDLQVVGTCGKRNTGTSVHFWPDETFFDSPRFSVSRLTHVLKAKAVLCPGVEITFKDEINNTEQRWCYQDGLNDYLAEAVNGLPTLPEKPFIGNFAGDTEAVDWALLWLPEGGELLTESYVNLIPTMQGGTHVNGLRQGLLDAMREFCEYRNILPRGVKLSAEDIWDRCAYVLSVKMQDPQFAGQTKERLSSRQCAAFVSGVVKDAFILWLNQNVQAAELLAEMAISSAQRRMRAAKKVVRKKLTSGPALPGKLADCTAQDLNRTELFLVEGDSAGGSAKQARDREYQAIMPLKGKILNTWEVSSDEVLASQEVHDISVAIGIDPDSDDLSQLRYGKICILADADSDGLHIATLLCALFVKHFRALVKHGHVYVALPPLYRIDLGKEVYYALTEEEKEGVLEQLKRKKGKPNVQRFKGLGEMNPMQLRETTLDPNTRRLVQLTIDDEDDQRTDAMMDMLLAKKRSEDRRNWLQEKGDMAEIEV
T2 sequence (P0AFI2 whole entry): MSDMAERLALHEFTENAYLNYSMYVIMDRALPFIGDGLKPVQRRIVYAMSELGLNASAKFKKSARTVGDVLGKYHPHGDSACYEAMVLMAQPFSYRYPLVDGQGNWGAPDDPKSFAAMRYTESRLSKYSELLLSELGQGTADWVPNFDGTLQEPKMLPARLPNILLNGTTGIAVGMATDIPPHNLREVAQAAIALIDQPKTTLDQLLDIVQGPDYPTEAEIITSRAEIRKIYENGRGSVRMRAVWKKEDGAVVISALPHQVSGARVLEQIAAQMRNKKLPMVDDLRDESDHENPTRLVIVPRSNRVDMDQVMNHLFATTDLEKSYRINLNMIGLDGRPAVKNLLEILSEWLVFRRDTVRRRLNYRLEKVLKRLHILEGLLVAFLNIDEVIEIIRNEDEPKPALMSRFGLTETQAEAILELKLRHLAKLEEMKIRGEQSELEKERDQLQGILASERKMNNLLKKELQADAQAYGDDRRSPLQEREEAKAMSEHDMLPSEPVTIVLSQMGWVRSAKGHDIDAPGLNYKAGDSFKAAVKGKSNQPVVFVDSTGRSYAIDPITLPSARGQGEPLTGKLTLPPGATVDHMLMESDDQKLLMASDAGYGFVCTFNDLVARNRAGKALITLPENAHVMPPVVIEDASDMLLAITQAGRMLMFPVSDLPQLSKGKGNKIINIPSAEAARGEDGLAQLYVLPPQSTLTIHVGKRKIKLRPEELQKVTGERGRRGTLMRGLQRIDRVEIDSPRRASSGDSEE
T3 sequence (P11388 whole entry): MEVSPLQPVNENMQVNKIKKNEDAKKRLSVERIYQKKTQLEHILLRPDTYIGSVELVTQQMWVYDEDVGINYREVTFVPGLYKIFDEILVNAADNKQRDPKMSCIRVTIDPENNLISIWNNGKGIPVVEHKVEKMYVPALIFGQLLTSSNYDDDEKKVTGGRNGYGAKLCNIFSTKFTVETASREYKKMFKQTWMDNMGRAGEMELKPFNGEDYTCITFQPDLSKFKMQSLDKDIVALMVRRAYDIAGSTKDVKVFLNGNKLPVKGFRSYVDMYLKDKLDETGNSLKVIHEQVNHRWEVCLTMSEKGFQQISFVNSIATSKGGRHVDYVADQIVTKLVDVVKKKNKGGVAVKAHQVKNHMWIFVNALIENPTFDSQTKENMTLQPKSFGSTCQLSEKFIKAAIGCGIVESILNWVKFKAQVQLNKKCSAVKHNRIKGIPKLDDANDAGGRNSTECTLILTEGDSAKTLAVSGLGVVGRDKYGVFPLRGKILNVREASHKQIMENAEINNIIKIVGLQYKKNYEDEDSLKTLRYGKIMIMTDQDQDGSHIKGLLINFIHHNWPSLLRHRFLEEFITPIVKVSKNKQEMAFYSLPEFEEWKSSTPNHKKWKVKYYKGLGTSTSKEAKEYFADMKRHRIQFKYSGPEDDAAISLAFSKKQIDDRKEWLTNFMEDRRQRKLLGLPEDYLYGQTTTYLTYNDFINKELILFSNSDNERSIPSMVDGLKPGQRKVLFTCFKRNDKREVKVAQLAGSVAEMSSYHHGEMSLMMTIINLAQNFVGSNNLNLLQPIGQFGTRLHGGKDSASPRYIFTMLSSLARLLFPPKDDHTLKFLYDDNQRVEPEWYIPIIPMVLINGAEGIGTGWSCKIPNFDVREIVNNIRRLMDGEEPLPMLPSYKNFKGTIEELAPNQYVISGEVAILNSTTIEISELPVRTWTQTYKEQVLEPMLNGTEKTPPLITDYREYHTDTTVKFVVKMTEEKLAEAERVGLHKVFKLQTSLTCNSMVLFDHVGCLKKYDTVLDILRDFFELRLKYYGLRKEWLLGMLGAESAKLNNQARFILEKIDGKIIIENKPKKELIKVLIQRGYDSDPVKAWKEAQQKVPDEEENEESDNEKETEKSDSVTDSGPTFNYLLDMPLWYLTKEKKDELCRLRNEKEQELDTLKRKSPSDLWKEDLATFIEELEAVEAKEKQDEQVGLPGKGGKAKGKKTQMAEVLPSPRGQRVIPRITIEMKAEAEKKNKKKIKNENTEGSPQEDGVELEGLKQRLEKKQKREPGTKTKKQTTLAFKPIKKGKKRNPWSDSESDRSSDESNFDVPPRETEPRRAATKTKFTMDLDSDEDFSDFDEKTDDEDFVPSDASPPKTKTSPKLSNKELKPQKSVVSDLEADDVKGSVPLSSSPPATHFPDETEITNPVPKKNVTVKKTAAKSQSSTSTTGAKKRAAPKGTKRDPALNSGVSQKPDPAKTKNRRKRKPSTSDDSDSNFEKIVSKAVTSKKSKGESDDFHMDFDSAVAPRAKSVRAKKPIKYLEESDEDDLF

Row | Structure (SMILES) | MIC [1] | MIC [2] | IC50 [3] | IC50 (E. coli topoisomerase IV; IC50 Topo IV, E. coli topoisomerase IV) | IC50 (E. coli topoisomerase IV; IC50 in the E. coli Topoisomerase IV inhibition assay, averages of three independent experiments) | concentration at which E. coli topo IV activity was inhibited (only the highest tested concentration) (E. coli topoisomerase IV) | IC50 [4] | concentration at which human topo II activity was inhibited (only the highest tested concentration) [4] | inhibition of pathogenic Gram-negative strains A. baumannii and P. aeruginosa (MIC range) ([5]; A. baumannii and P. aeruginosa) | average potency on Gram-positive bacteria compared with ciprofloxacin ([5]; E. faecalis, S. aureus, S. pneumonia, average MIC) | IC50 (E. coli topoisomerase IV; E. coli topoisomerase IV, read-out: IC50 Topo IV) | IC50 (E. coli topoisomerase IV; averages of three independent experiments, read-out: IC50 in the E. coli Topoisomerase IV inhibition assay) | ratios IC50(topo IV)/IC50(gyrase) (E. coli topoisomerase IV; topo IV vs. gyrase)
1 | CO[C@H](C(=O)Nc1ccc(C(=O)Nc2ccc(C(=O)Nc3ccc(C(=O)O)cc3OC(C)C)c(O)c2OC(C)C)cc1)[C@H](NC(=O)c1ccc(NC(=O)c2ccc([N+](=O)[O-])cc2)cc1)C(=O)O [cystobactamide A, Cystobactamide A] | 0.5 µg/mL (≈ 0.543 µM) | 14.7 µg/mL (≈ 16 µM) | ~1 µM | ~815 µM | > 160 µM | 815 µM | > 160 µM | 815 µM | low μg/ml range | exceeded that of ciprofloxacin |  |  | 
2 | CC(C)Oc1cc(C(=O)O)ccc1NC(=O)c1ccc(NC(=O)c2ccc(N)cc2)c(OC(C)C)c1O [cystobactamide C, Cystobactamide C] | 8.1 µg/mL (≈ 16 µM) | 65 µg/mL (≈ 128 µM) | ~6 µM |  |  | 300 µM | > 60 µM | 300 µM |  |  | ~300 µM | > 60 µM | ~42
